Source: PMC3871529, “At a Supra-Physiological Concentration, Human Sexual Hormones Act as Quorum-Sensing Inhibitors” (PLoS ONE, 2013)

Legend:
[1] = test system: Agrobacterium biosensor cells; experiment: Minimal bactericidal concentration (MBC); assay type: cell-based, Agrobacterium tumefaciens; settings: Agrobacterium; 99.9% reduction of 10^5 CFU/ml after 36 h at 30°C; read-out: MBC
Description: (§1) Aside from the effect of QSI on QS regulation, the toxicity of these compounds was tested on bacterial cells by measuring two parameters: the minimal inhibitory concentration (MIC) and minimal bactericidal concentration (MBC). MIC, which is the lowest concentration of QSI (µg/ml) inhibiting any visible culture after 36 h of incubation at 30°C, was estimated by culturing 10^5 CFU/ml of the Agrobacterium biosensor cells in the presence of different concentrations of the QSI. MBC, which is the lowest concentration of QSI (µg/ml) that results in a 99.9% reduction of the initial bacterial population (10^5 CFU/ml) after 36 h of incubation at 30°C in the presence of different concentrations of QSI, was estimated by plating 100 µL of the Agrobacterium cultures on agar LBm plates. After an incubation of 48 h at 30°C, CFU were counted and the MBC values were calculated.

[2] = test system: QS-regulated genes lasI, lasR, lasB, rhlI, rhlR, rhlA in P. aeruginosa PAO1; experiment: QS-regulated gene expression, lacZ transcriptional fusions in PAO1; assay type: cell-based, Pseudomonas aeruginosa; settings: QSI at 0.5 mg/ml, 18 hours at 37°C, β-galactosidase
Description: Figure 6 QSIs modulated QS-regulated genes in P. aeruginosa. The β-galactosidase (b-Gal) activity in Miller unit (MU) of the transcriptional fusions lasI-lacZ (A), lasR-lacZ (B), lasB-lacZ (C), rhlI-lacZ (D), rhlR-lacZ (E), rhlA-lacZ (F), and aecA-lacZ(G) were measured in the presence of estradiol, estrone, estriol, hordenine at 0.5 mg/ml, and naringenin at 1 mg/ml as a positive control and DMSO as a negative control. The statistical significance of each test (n = 5 and three biological replicates) was evaluated by Student's t test (i.e. each test was compared with the DMSO condition). Asterisks indicate statistically different data (p value of ≤0.01).
(§2) QS gene transcription in P. aeruginosa PAO1 was monitored using PAO1 strains carrying various gene promoters fused to a lacZ reporter gene, as described in Vandeputte et al., 2010 and Table 1. PAO1 reporter strains were prepared according to Vandeputte et al.. Briefly, 18-hours-old liquid cultures (50 µl) were diluted in order to obtain a starting OD600 nm comprised between 0.02 and 0.03 in fresh LB medium supplemented with 50 mM MOPS pH 7.0 (1 ml), carbenicillin (300 µg/ml) and 10 µl of the QSIs to be tested (OD were measured using a SpectraMax M2 device from Molecular Devices). Test and control QSIs were diluted in 100% DMSO (resulting after addition to the growth medium in a 1% final concentration of DMSO). Cultures were incubated for 18 hours at 37°C with agitation. After incubation, cell densities were assessed spectrophotometrically (OD600 nm) and β-galactosidase assays were performed using the substrate o-nitrophenyl-β-D-galactopyranoside as described previously, [29]. Promoterless-lacZ fusions were used as controls. AHLs were quantified as described in Vandeputte et al.. All tests were performed in quintuplicates and three biological repetitions. The statistical significance of each test was evaluated by conducting Student's t tests and two-way ANOVA combined with the Tukey post-analysis test using the GraphPad Prism software and p values≤0.01 were considered significant.

LasR = biological target: T1, LasR (Pseudomonas aeruginosa, UniProt P25084); experiment: E. coli bioindicator expressing LasR (pAL105, lasI::luxCDABE luminescence); assay type: cell-based; settings: OC12-HSL 100 µM; QSIs at 0.1 mg/ml, naringenin and naringin at 0.5 mg/ml
T1 construct: expressed in transfected cells; host or cells: Escherichia coli JLD271 carrying pAL105 (pSB401-derivative, lasR+ lasI::luxCDABE)
Description: (§3) We determined whether the AHL-binding transcriptional factors LasR and RhlR were impaired in their capacity to activate expression of the QS-regulated genes in the presence of various QSIs. This was achieved by using two E. coli bioindicator strains expressing either LasR or RhlR proteins and harboring an appropriate reporter lux operon for measuring their transcriptional activity in the presence of OC12-HSL at 100 µM and C4-HSL at 10 µM, respectively. Adding C4-HSL to the pAL101-bioindicator or OC12-HSL to the pAL105-bioindicator induced the expression of the reporter lux operon and the consequent production of luminescence. In contrast, only background levels of luminescence were detected in control strains harboring the plasmids pAL102 or pAL106, which lacks the rhlR or lasR gene, respectively.
(§4) Figure 7 QSIs modulated activity of the AHL-sensors in P. aeruginosa. Luminescence of the reporting operon lux, expressed in relative light units (RLU/OD600), was measured in E. coli bioindicator strains harboring the LasR (A) and RhlR (B) AHL-sensing systems of P. aeruginosa in the presence of […]. The QSIs estradiol, estrone, estriol and hordenine were added at 0.1 mg/ml, while naringenin and naringin, added at 0.5 mg/ml, were used as QSI-reference and non-QSI reference, respectively. Each test (n = 6) was compared with the DMSO-condition using Student's t test. Asterisks indicate statistically different data (p value of ≤0.01).
(§5) Escherichia coli JLD271 biosensor strains harboring LasR- and RhlR-based plasmids pAL105 and pAL101 and control plasmids pAL106 (LasR^-) and pAL102 (RhlR^−) (Table 1) were prepared according to Vandeputte et al.. Briefly, these strains were grown in LB medium supplemented with tetracycline (10 µg/ml) and chloramphenicol (25 µg/ml) for 24 h. Then 50-µl portions of the cultures were subcultured in 1 ml of LB medium (the starting OD600 ranged between 0.02 and 0.025 corresponding to 5.10^6 CFU) supplemented with 10 µl of DMSO (1% [vol/vol] final), 10 µl of naringenin or naringin dissolved in DMSO (2 mM, final concentration), or 10 µl of the molecule to be tested. To induce the expression of the lux operon, 0, 1, 10 or […] of C4-HSL was added to pAL101 and pAL102, while OC12-HSL was added to pAL105 and pAL106. After incubation for 2 h at 37°C with agitation (175 rpm), 200 µl of culture was transferred to 96-well OptiPlate-96 F plates from Perkin-Elmer, and the luminescence of each sample was measured by using a TopCount NXT device from Perkin-Elmer. The LasR(pAL106) and RhlR(pAL102) biosensors were used for background subtraction, and the OD600 values were measured to account for the differences in cell density. All experiments were performed in six replicates. The statistical significance of each test was evaluated by conducting Student's t tests using the GraphPad Prism software, and p values ≤0.05 were considered significant. Naringenin (4′,5,7-trihydroxyflavanone), naringin (4′,5,7-trihydroxyflavanone 7-rhamnoglucoside), the AHLs OC12-HSL and C4-HSL were purchased from Sigma-Aldrich and dissolved freshly in 100% DMSO before use. Tested QSIs were dissolved in 100% DMSO before use.

P. aeruginosa = experiment: Growth kinetics of P. aeruginosa in the presence of QSIs; assay type: cell-based, Pseudomonas aeruginosa; settings: QSI at 0.5 mg/ml, OD600 and CFU at 8 and 18 hour
Description: (§6) Figure 5 QSIs modulated QS-signal accumulation in P. aeruginosa. Growth kinetics (n = 6) of P. aeruginosa was measured (OD600) in the presence of the QSIs (estradiol, estrone, estriol, hordenine and 4-NPO) at 0.5 mg/ml using DMSO as a negative control. Cell counts were assessed (CFU/ml) at 8- and 18-hour, and C4-HSL and OC12-HSL concentration (µM) were determined in the bacterial cultures at 18-hour. Statistically different values (Student's t test with α = 0.01) are noted by asterisks.
as §2

[3] = test system: QS-signal accumulation in P. aeruginosa; experiment: AHL (C4-HSL, OC12-HSL) quantification in P. aeruginosa cultures by mass spectrometry; assay type: cell-based, Pseudomonas aeruginosa; settings: QSI at 0.5 mg/ml, 18-hour
Description: as §6, §2

[4] = test system: Agrobacterium biosensor cells; experiment: Minimal inhibitory concentration (MIC); assay type: cell-based, Agrobacterium tumefaciens; settings: Agrobacterium; 10^5 CFU/ml, 36 h at 30°C; read-out: MIC
Description: as §1

RhlR = biological target: T2, RhlR (Pseudomonas aeruginosa, UniProt P54292); experiment: E. coli bioindicator expressing RhlR (pAL101, rhlI::luxCDABE luminescence); assay type: cell-based; settings: C4-HSL 10 µM; QSIs at 0.1 mg/ml, naringenin and naringin at 0.5 mg/ml
T2 construct: expressed in transfected cells; host or cells: Escherichia coli JLD271 carrying pAL101 (pSB401-derivative, rhlR+ rhlI::luxCDABE)
Description: as §3, §4, §5

T1 sequence (P25084 whole entry): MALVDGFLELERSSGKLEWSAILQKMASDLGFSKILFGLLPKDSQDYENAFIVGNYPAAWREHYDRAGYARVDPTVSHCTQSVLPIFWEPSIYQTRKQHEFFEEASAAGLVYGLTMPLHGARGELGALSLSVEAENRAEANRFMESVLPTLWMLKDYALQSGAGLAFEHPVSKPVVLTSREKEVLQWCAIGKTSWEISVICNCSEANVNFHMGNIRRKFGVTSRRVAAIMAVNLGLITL
T2 sequence (P54292 whole entry): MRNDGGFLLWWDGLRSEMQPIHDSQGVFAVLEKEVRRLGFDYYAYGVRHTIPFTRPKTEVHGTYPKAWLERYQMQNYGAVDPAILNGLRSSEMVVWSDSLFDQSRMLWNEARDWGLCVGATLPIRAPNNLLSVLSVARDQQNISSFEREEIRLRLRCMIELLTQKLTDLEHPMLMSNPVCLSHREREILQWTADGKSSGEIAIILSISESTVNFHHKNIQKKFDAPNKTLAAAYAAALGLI

Compound	MBC [1]	expression of six QS-regulated genes (lasI, lasR, lasB, rhlI, rhlR, rhlA) [2]	effect on LasR functionality (lux luminescence) (LasR)	effect on growth of P. aeruginosa (P. aeruginosa)	C4-HSL concentration in cell cultures [3]	OC12-HSL concentration in cell cultures [3]	MIC [4]	effect on RhlR functionality (lux luminescence) (RhlR)
C[C@]12CC[C@@H]3c4ccc(O)cc4CC[C@H]3[C@@H]1CC[C@@H]2O [Estradiol, estradiol]	> 100 µg/mL	decreased	affected LasR functionality	did not affect the growth	reduction	reduction	> 100 µg/mL	–
O=C1CC(c2ccc(O)cc2)Oc2cc(O)cc(O)c21 (centres unmarked) [naringenin, 4′,5,7-trihydroxyflavanone]	–	–	less luminescence	–	–	–	–	less luminescence
C[C@@H]1O[C@@H](O[C@H]2[C@H](Oc3cc(O)c4c(c3)O[C@H](c3ccc(O)cc3)CC4=O)O[C@H](CO)[C@@H](O)[C@@H]2O)[C@H](O)[C@H](O)[C@H]1O [naringin, 4′,5,7-trihydroxyflavanone 7-rhamnoglucoside]	–	–	no effect	–	–	–	–	no effect
